Experimental data published in ChEMBL document CHEMBL3044623, “Feeding cessation effects of chlorantraniliprole, a new anthranilic diamide insecticide, in comparison with several insecticides in distinct chemical classes and mode-of-action groups” (2009).

Experiments:
Format in all cases: functional
Plutella xylostella [1] = assay: Antifeedant activity against third-instar larval stage of Plutella xylostella (diamondback moth) infested compound-treated leaf assessed as reduction in feeding damage at 3341 mg a.i/L after 48 hr by leaf disk assay relative to untreated control; parameters: scale not given: the % may be the effect or the level left
Plutella xylostella [2] = assay: Antifeedant activity against third-instar larval stage of Plutella xylostella (diamondback moth) infested compound-treated leaf assessed as time required to stop feeding at 3341 mg a.i/L after 48 hr by leaf disk assay (reference value: > 2880 min)
Trichoplusia ni [3] = assay: Antifeedant activity against third-instar larval stage of Trichoplusia ni (cabbage looper) infested compound-treated leaf assessed as time required to stop feeding at 3341 mg a.i/L after 48 hr by leaf disk assay (reference value: > 2880 min)
Spodoptera exigua [4] = assay: Antifeedant activity against third-instar larval stage of Spodoptera exigua infested compound-treated leaf assessed as time required to stop feeding at 3341 mg a.i/L after 48 hr by leaf disk assay (reference value: > 2880 min)
Spodoptera exigua [5] = assay: Antifeedant activity against third-instar larval stage of Spodoptera exigua infested compound-treated leaf assessed as reduction in feeding damage at 3341 mg a.i/L after 48 hr by leaf disk assay relative to untreated control; parameters: scale not given: the % may be the effect or the level left
Helicoverpa zea [6] = assay: Antifeedant activity against third-instar larval stage of Helicoverpa zea (corn earworm) infested compound-treated leaf assessed as time required to stop feeding at 3341 mg a.i/L after 48 hr by leaf disk assay (reference value: > 2880 min)
Trichoplusia ni [7] = assay: Antifeedant activity against third-instar larval stage of Trichoplusia ni (cabbage looper) infested compound-treated leaf assessed as reduction in feeding damage at 3341 mg a.i/L after 48 hr by leaf disk assay relative to untreated control; parameters: scale not given: the % may be the effect or the level left
Helicoverpa zea [8] = assay: Antifeedant activity against third-instar larval stage of Helicoverpa zea (corn earworm) infested compound-treated leaf assessed as reduction in feeding damage at 3341 mg a.i/L after 48 hr by leaf disk assay relative to untreated control; parameters: scale not given: the % may be the effect or the level left

CNC(=O)ON=C(C)SC [METHOMYL]
Activity (Plutella xylostella [1]): 98.5% | Time (Plutella xylostella [2]): 3.6 min | Time (Trichoplusia ni [3]): 4.2 min | Time (Spodoptera exigua [4]): 5.9 min | Activity (Spodoptera exigua [5]): 99.8% | Time (Helicoverpa zea [6]): 3.8 min | Activity (Trichoplusia ni [7]): 99.9% | Activity (Helicoverpa zea [8]): 99.7%
